Assay results taken from ChEMBL document CHEMBL1201862, “PubChem BioAssay data set” (2004).
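Grown in 96-well plates, cells were treated for 48 hours with each compound at five concentrations. Insufficient inhibition: endpoint recorded as highest concentration tested. GI50: concentration for 50% inhibition of growth.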 Calls of active or inactive are those of the source. No stated cut-off is given here; in the data, active = GI50 up to about 1.1 µM and inactive = higher.

Key:
Assay in all cases: NCI anticancer screen, dose series, 48 h
[1] = tested on: 786-0
[2] = tested on: A549
[3] = tested on: CAKI-1
[4] = tested on: CCRF-CEM
[5] = tested on: DU-145
[6] = tested on: HCC 2998
[7] = tested on: IGROV-1
[8] = tested on: LOX IMVI
[9] = tested on: MCF7
[10] = tested on: MDA-MB-231
[11] = tested on: MDA-MB-435
[12] = tested on: NCI/ADR-RES
[13] = tested on: OVCAR-5
[14] = tested on: SF-268
[15] = tested on: SW-620
[16] = tested on: T47D
[17] = tested on: U-251
[18] = tested on: UACC-257
[19] = tested on: UACC-62
[20] = tested on: UO-31

Measured: GI50

COC(=O)C1=CCC[C@H]2[C@@]1(COC(C)=O)CC[C@@H](C)[C@]2(C)CC(=O)c1ccoc1
inactive: [1] 15.2 µM | [2] 19 µM | [3] 18.6 µM | [4] 10.3 µM | [5] 21.5 µM | [6] 12.9 µM | [7] 15.9 µM | [8] 10.8 µM | [9] 16.1 µM | [10] 17.2 µM | [11] 16.7 µM | [12] 14.7 µM | [13] 49 µM | [14] 27.2 µM | [15] 21.1 µM | [16] 8.47 µM | [17] 21.2 µM | [18] 18.7 µM | [19] 7.93 µM | [20] 13.4 µM

Cc1ccc(S(=O)(=O)NC(=O)C2=C3SCCN3C(=O)N(S(=O)(=O)c3ccc(C)cc3)C2c2ccccc2)cc1 (stereo not given)
inactive: [1] 51.9 µM | [2] > 100 µM | [3] > 100 µM | [4] 19.4 µM | [5] > 100 µM | [6] 12.2 µM | [7] 46.9 µM | [8] 39.4 µM | [9] 29.9 µM | [10] 36.6 µM | [11] 22.9 µM | [12] > 100 µM | [13] 39.4 µM | [14] 32.3 µM | [15] 47.3 µM | [16] > 100 µM | [17] 39.3 µM | [18] 78.5 µM | [19] 37.3 µM | [20] > 100 µM

O=C(CSCC(=O)N/N=C/c1cccc(OCc2ccccc2)c1)N/N=C/c1cccc(OCc2ccccc2)c1
inactive: [1] 54.2 µM | [2] 27.9 µM | [3] > 100 µM | [4] 24.4 µM | [5] > 100 µM | [6] 30.6 µM | [7] > 70.8 µM | [8] 36.1 µM | [9] 33.7 µM | [10] > 100 µM | [11] 37.5 µM | [12] 44.6 µM | [13] 96.8 µM | [14] > 80.2 µM | [15] > 87.1 µM | [16] 38.9 µM | [17] 39.2 µM | [18] 32.3 µM | [19] > 92.3 µM | [20] 46.9 µM

CCCCn1c2c(n(CCCC)c1=S)-c1c(n(CCCC)c(=S)n1CCCC)SSc1c(n(CCCC)c(=S)n1CCCC)-c1c(n(CCCC)c(=S)n1CCCC)SSc1c(n(CCCC)c(=S)n1CCCC)-c1c(n(CCCC)c(=S)n1CCCC)SS2
inactive: [1] 3.56 µM | [2] > 50 µM | [3] 10.2 µM | [4] 1.19 µM | [5] 29.8 µM | [6] 12.6 µM | [7] 2.43 µM | [8] 4 µM | [9] 12.8 µM | [10] 2.24 µM | [11] 11.3 µM | [12] > 50 µM | [13] 9.12 µM | [14] 5.24 µM | [15] 1.69 µM | [16] 1.5 µM | [17] 2.15 µM | [18] 2.98 µM | [19] 3.37 µM | [20] 6.47 µM

COc1cc2c(c(OC3OC(CO)C(O)C(O)C3O)c1)C(=O)CC(c1ccc(O)cc1)O2 (stereo not given)
inactive: [1] > 100 µM | [2] > 100 µM | [3] > 100 µM | [4] > 10 µM | [5] > 100 µM | [6] > 100 µM | [7] > 100 µM | [8] > 100 µM | [9] > 100 µM | [10] > 100 µM | [11] > 100 µM | [12] > 100 µM | [13] > 100 µM | [14] > 100 µM | [15] > 100 µM | [16] > 100 µM | [17] > 100 µM | [18] > 100 µM | [19] > 100 µM | [20] > 100 µM

CCCCCNC(=O)c1cc2cc(CCl)ccc2oc1=O
inactive: [1] 1.34 µM | [2] 4.65 µM | [3] 1.21 µM | [4] > 100 µM | [5] 2.26 µM | [6] 1.77 µM | [7] 4.71 µM | [8] 17.3 µM | [9] 5.97 µM | [10] 1.97 µM | [11] 9.27 µM | [12] 16.4 µM | [13] 2.88 µM | [14] 3.19 µM | [15] > 49.7 µM | [16] 1.3 µM | [17] 9.98 µM | [18] 2.04 µM | [19] 2.45 µM | [20] 1.63 µM
